The numbers were not newly measured in patent publication US6921495B2, “Environmentally compatible defrosting and antifreeze agents for aeroplanes” (Clariant GmbH, priority 2001, dated 2005), which cites them from elsewhere.

Like-named read-outs stand apart in the source and are kept apart here.

Series [1] relates to rat.
In series [2] the test system is Brachydanio rerio.

In the case of `c1ccc2[nH]nnc2c1` [benzotriazole], in series [1] (in vivo, po), the LD50 oral rat is listed as 560 mg/kg. Moreover, the “LCO in Brachydanio rerio” value in series [2] (Brachydanio rerio) was 100 mg/L.
For the compound Tolyltriazole, the LD50 oral rat in series [1] (oral) is recorded as 675 mg/kg. Besides, the “LCO in Brachydanio rerio” value in series [2] (in vivo) was 42.2 mg/L.
